One experiment relates to kallikrein. As to the kind of experiment: anti-kallikrein activity, hydrolysis of TAME (tosylarginine methyl ester). Type of experiment: biochemical. Conditions: hydrolysis of TAME; read-out: Kal: molar concentration inhibiting 50% of enzyme activity (IC50). As to the method:
(§1) The values in Table 1 represent molar concentrations (IC50) of test compounds which inhibit 50% of the activity of each enzyme to hydrolyze TAME (tosylarginine methyl ester). The anti-trypsin, anti-plasmin, anti-kallikrein and anti-thrombin activities were determined according to the method of Muramatsu et al. (J. Biochem. (1965), volume 58, page 214).

For another experiment, the target named is T1, trypsin (Bos taurus, UniProt P00760).
T1 sequence (P00760 24-246): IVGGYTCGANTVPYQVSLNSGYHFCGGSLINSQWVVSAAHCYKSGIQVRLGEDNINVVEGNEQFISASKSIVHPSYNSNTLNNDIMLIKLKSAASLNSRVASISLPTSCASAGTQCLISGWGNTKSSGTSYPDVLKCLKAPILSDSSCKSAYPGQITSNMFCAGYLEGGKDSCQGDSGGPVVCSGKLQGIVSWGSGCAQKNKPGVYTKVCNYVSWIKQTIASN
As to the kind of experiment: anti-trypsin activity, hydrolysis of TAME (tosylarginine methyl ester). Type of experiment: biochemical. Conditions: hydrolysis of TAME; read-out: Try: molar concentration inhibiting 50% of enzyme activity (IC50).

The target in the next experiment is plasmin (Homo sapiens, UniProt P00747). As to the kind of experiment: anti-plasmin activity, hydrolysis of TAME (tosylarginine methyl ester). The experiment is classed as biochemical. Conditions: hydrolysis of TAME; read-out: Pla: molar concentration inhibiting 50% of enzyme activity (IC50). As to the method: as §1
The target in a further experiment is T2, C1r (Homo sapiens, UniProt P00736).
T2 sequence (P00736 18-705): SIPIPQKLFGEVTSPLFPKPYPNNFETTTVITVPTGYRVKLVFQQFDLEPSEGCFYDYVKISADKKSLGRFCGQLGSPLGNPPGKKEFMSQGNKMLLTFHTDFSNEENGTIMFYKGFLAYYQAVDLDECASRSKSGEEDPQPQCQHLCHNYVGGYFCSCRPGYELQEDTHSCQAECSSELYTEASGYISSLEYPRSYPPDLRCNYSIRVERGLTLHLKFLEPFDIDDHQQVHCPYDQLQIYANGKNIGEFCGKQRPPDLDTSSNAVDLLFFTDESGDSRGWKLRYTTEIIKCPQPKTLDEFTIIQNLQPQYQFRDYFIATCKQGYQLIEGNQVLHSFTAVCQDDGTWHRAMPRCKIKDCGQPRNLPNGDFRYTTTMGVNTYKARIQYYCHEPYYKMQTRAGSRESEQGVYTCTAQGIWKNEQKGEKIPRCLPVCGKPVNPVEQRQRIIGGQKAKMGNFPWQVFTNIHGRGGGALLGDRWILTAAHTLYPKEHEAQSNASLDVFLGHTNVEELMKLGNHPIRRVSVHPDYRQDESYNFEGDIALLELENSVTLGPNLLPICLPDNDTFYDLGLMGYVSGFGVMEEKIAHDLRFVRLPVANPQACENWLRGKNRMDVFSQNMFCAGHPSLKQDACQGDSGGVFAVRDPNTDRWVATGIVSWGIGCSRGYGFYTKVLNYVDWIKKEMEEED
As to the kind of experiment: anti-complement (anti-C1 esterase) activity, C1r hydrolysis of AAME (acetyl-arginine methyl ester). The experiment is classed as biochemical.

Another experiment deals with thrombin (Homo sapiens, UniProt P00734). As to the kind of experiment: anti-thrombin activity, hydrolysis of TAME (tosylarginine methyl ester). The experiment is classed as biochemical. Particulars: hydrolysis of TAME; read-out: Thr: molar concentration inhibiting 50% of enzyme activity (IC50). As for the experimental part:
as §1

In the next experiment the target is T3, C1s (Homo sapiens, UniProt P09871).
T3 sequence (P09871 16-688): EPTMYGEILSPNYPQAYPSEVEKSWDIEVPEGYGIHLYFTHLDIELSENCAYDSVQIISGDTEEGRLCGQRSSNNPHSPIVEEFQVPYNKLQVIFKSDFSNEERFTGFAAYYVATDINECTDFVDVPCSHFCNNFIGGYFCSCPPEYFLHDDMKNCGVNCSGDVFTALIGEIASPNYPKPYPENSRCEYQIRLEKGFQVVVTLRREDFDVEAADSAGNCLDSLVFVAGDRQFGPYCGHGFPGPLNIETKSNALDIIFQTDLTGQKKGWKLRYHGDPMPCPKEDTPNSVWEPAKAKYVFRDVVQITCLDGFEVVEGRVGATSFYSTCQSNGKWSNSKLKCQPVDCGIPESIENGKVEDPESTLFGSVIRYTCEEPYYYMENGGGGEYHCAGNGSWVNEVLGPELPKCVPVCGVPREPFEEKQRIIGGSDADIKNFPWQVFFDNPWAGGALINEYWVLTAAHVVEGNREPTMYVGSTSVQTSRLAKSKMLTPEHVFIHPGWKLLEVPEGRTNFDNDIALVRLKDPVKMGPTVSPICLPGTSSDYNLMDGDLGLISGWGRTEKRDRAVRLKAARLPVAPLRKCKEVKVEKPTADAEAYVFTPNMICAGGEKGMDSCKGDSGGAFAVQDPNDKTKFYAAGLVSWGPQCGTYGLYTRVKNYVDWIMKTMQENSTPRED
As to the kind of experiment: anti-complement (anti-C1 esterase) activity, C1s hydrolysis of ATEE (acetyltyrosine ethyl ester). The experiment is classed as biochemical. Conditions: hydrolysis of ATEE; read-out: Cls: molar concentration inhibiting 50% of C1s activity (IC50).

The test system of a further experiment is Masugi's nephritis. As to the kind of experiment: Effectiveness in treating Masugi's nephritis (experimental glomerulonephritis), protein in urine. Type of experiment: in vivo, rat. As to the method: […] […] As the index to effectiveness, the protein concentration in urine was determined. That is, when inflammation develops in the kidney, it causes damage to renal tubules, etc., and a resultant increase in protein concentration in urine.

Where [1] appears, read: hydrolysis of AAME, read-out: Clr: molar concentration inhibiting 50% of C1r activity (IC50).
[2] abbreviates: 30 mg/kg, oral, mean ± standard deviation, 7 animals, control group 40.8 ± 15.1.
[3] abbreviates: 100 mg/kg, oral, mean ± standard deviation, 7 animals, control group 40.8 ± 15.1.

Here are results for 17 compounds from patent US5532267A, “Amidinonaphthyl furancarboxylate derivatives and acid addition salts therof” (Torii & Co., Ltd., priority 1992, dated 1996).

Counter-ions that a name gives are not always drawn. Like-named read-outs stand apart in the source and are kept apart here.

Sequence of plasmin (P00747 581-810 limits assumed, species assumed): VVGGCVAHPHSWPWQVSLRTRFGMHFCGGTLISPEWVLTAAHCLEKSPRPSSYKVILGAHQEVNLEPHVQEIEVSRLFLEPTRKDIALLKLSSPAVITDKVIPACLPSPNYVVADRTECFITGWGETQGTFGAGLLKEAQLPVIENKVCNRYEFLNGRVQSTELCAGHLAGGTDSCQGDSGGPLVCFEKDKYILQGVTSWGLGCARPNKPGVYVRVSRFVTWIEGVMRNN
Sequence of plasmin (P00747 97-580 partner limits assumed, species assumed): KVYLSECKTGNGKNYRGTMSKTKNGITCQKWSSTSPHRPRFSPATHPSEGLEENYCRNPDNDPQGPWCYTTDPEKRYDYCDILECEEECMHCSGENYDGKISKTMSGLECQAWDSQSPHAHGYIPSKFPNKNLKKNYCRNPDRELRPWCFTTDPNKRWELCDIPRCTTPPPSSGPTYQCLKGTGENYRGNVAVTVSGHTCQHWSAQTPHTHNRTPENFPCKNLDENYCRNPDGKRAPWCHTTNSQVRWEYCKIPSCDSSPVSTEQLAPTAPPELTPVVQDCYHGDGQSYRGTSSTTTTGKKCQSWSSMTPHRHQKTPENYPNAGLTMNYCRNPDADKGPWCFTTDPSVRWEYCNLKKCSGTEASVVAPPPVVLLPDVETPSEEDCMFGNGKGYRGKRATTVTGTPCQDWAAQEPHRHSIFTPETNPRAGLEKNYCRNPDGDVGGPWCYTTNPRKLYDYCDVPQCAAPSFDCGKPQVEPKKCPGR
Description for C1s: The anti-C1 esterase (C1r, C1s) activity was determined according to the method of Okamura et al. (Biochem. Biophys. Acta (1973), volume 295, pages 252-257). […] The values for C1s represent molar concentrations (IC50) of test compounds which inhibit 50% of the activity of C1s to hydrolyze ATEE (acetyltyrosine ethyl ester).

On to `Cl.N=C(N)c1ccc2cc(OC(=O)c3ccc(CNC(=O)Cc4ccc(C(=O)O)cc4)o3)ccc2c1` [Example 6, 6-Amidino-2-naphthyl 5-(4-carboxyphenylacetylaminomethyl)furan-2-carboxylate hydrochloride], for which the IC50 with kallikrein was 830 nM; at trypsin, 390 nM; on plasmin, 260 nM; at C1r (setting [1]), 23 nM; at thrombin it was 10000 nM; at C1s, 270 nM. The “Protein concentration in urine” value in the experiment on Masugi's nephritis (setting [2]) is 19.7 ± 11.1 mg/mL.

On to `Cl.N=C(N)c1ccc2cc(OC(=O)c3ccc(CNC(=O)[C@H]4CC[C@H](C(=O)O)CC4)o3)ccc2c1` [Example 11, 6-Amidino-2-naphthyl 5-(trans-4-carboxy-1-cyclohexanoylaminomethyl)furan-2-carboxylate hydrochloride], for which the IC50 with kallikrein is 870 nM; at trypsin, 660 nM; at plasmin it was 400 nM; at C1r, 1200 nM; at thrombin, 1200 nM; on C1s it was 280 nM. For the same compound, the “Protein concentration in urine” value in the experiment on Masugi's nephritis (po, 30 mg/kg) was found to be 33.6 ± 17.8 mg/mL.

For the compound `Cl.N=C(N)c1ccc2cc(OC(=O)c3ccc(CNC(=O)/C=C/C(=O)O)o3)ccc2c1` [Example 13, 6-Amidino-2-naphthyl 5-(trans-2-carboxyvinyl)carbonylaminomethylfuran-2-carboxylate hydrochloride], in the experiment on Masugi's nephritis (setting [2]), the “Protein concentration in urine” value came to 24.2 ± 16.8 mg/mL.

For the compound `CC(C)(C)OC(=O)CCCC(=O)NCc1ccc(C(=O)Oc2ccc3cc(C(=N)N)ccc3c2)o1` [Example 19, 6-Amidino-2-naphthyl 5-(4-t-butoxycarbonyl-butyrylaminomethyl)furan-2-carboxylate hydrochloride], the IC50 with kallikrein amounted to 250 nM; on trypsin, 250 nM; at plasmin, 170 nM; at C1r (setting [1]), 1800 nM; at thrombin, 360 nM; on C1s, 720 nM.

For the compound `CC(C)(C)OC(=O)CCC(NC(=N)N)C(=O)NCc1ccc(C(=O)Oc2ccc3cc(C(=N)N)ccc3c2)o1` (stereo not drawn) [Example 20, 6-amidino-2-naphthyl 5-(4-t-butoxycarbonyl-2-guanidinobutyrylaminomethyl)furan-2-carboxylate hydrochloride hydrobromide], the IC50 stood at 130 nM in the experiment with kallikrein; 2000 nM at trypsin; 180 nM on plasmin; 380 nM on C1r (setting [1]); 460 nM on thrombin; 390 nM on C1s.

With `N=C(N)c1ccc2cc(OC(=O)c3ccc(CNC(=O)CCC(=O)O)o3)ccc2c1` [Example 21, 6-amidino-2-naphthyl 5-(3-carboxypropionylaminomethyl)furan-2-carboxylate hydrochloride], the IC50 is 700 nM in the experiment on kallikrein; 310 nM at trypsin; 330 nM on plasmin; 540 nM on C1r (setting [1]); 960 nM on thrombin; 180 nM at C1s.

Consider `Cl.N=C(N)c1ccc2cc(OC(=O)c3ccc(CNC(=O)CCCCC(=O)O)o3)ccc2c1` [Example 23, 6-Amidino-2-naphthyl 5-(5-carboxyvalerylaminomethyl)furan-2-carboxylate hydrochloride], for which the “Protein concentration in urine” value in the experiment with Masugi's nephritis (setting [2]) was found to be 24.2 ± 18.8 mg/mL.

With `Cl.N=C(N)c1ccc2cc(OC(=O)c3ccc(CNC(=O)CCCCCCCC(=O)O)o3)ccc2c1` [Example 26, 6-Amidino-2-naphthyl 5-(8-carboxyoctanoylaminomethyl)furan-2-carboxylate hydrochloride], the “Protein concentration in urine” value with Masugi's nephritis (setting [2]) amounted to 25.0 ± 15.4 mg/mL.

Turning to `N=C(N)NC(CCC(=O)O)C(=O)NCc1ccc(C(=O)Oc2ccc3cc(C(=N)N)ccc3c2)o1` (stereo not drawn) [Example 29, 6-Amidino-2-naphthyl 5-(4-carboxy-2-guanidinobutyrylaminomethyl)furan-2-carboxylate dihydrobromide], the IC50 in the experiment with kallikrein was 240 nM; on trypsin, 1200 nM; on plasmin, 230 nM; on C1r (setting [1]) it was 440 nM; at thrombin, 1600 nM; at C1s, 360 nM.

For the compound `N=C(N)c1ccc2cc(OC(=O)c3ccc(CNC(=O)CCC(N)=O)o3)ccc2c1` [Example 32, 6-Amidino-2-naphthyl 5-(3-carbamoylpropionylaminomethyl)furan-2-carboxylatehydrochloride], the “Protein concentration in urine” value in the experiment with Masugi's nephritis (setting [2]) was 22.8 ± 13.9 mg/mL.

In the case of `Cc1oc(=O)oc1COC(=O)CCC(=O)NCc1ccc(C(=O)Oc2ccc3cc(C(=N)N)ccc3c2)o1` [Example 33, 6-Amidino-2-naphthyl 5-{[3-(4-methyl-1,3-dioxole-2-one-5-yl)methoxycarbonyl]propionylaminomethyl}furan-2-carboxylate hydrochloride], the IC50 in the experiment on kallikrein was 580 nM; on trypsin, 6600 nM; on plasmin it was 84 nM; on C1r (setting [1]) it was 140 nM; on thrombin, 23 nM; at C1s, 220 nM.

In the case of `Cl.N=C(N)c1ccc2cc(OC(=O)c3ccc(CNC(=O)CCC(=O)NCC(=O)O)o3)ccc2c1` [Example 36, 6-Amidino-2-naphthyl 5-(3-carboxymethylcarbamoylpropionylaminomethyl)furan-2-carboxylate hydrochloride], the “Protein concentration in urine” value with Masugi's nephritis (setting [2]) was 26.2 ± 14.7 mg/mL.

As to `CCC(C(=O)O)C(=O)NCc1ccc(C(=O)Oc2ccc3cc(C(=N)N)ccc3c2)o1.Cl` (stereo not drawn) [Example 38, 6-Amidino-2-naphthyl 5-(2-carboxybutyrylaminomethyl)furan-2-carboxylate hydrochloride], the “Protein concentration in urine” value in the experiment with Masugi's nephritis (setting [2]) turned out to be 17.8 ± 12.4 mg/mL.

For the compound `CC(CC(=O)O)CC(=O)NCc1ccc(C(=O)Oc2ccc3cc(C(=N)N)ccc3c2)o1.Cl` (stereo not drawn) [Example 43, 6-Amidino-2-naphthyl 5-(4-carboxy-3-methylbutyrylaminomethyl)furan-2-carboxylate hydrochloride], the “Protein concentration in urine” value with Masugi's nephritis (setting [2]) was determined as 21.8 ± 10.3 mg/mL.

Turning to `N=C(N)c1ccc2cc(OC(=O)c3ccc(CNC(=O)CC4(CC(=O)O)CCCC4)o3)ccc2c1` [Example 44, hydrochloride], the “Protein concentration in urine” value in the experiment with Masugi's nephritis (setting [2]) is 20.0 ± 12.9 mg/mL.

With `N=C(N)c1ccc2cc(OC(=O)c3ccc(CNC(=O)c4ccc(NC5=NCCN5)cc4)o3)ccc2c1` [Known compd. I, reference compound], in the experiment on Masugi's nephritis (setting [3]), the “Protein concentration in urine” value amounted to 24.4 ± 11.9 mg/mL.

As for `N=C(N)c1ccc2cc(OC(=O)c3ccc(CN)o3)ccc2c1` [Known compd. II, reference compound], in the experiment with Masugi's nephritis (setting [3]), the “Protein concentration in urine” value was 22.1 ± 11.4 mg/mL.
